# Data from the supplement of paper PMC4314810.
# ± gives the standard deviation of the averaged measurements.
# Tested on: MCF7
# Assay: HRG-induced Akt activation (dPAkt = log2 pAkt/Akt HRG-stimulated minus log2 pAkt/Akt basal) (log2 ratio difference); higher = stronger HRG-induced Akt(T308) phosphorylation
# Conditions: miRNA mimic concentration 10 nM; time after transfection 72 h; heregulin 10 ng/ml; stimulation time 1 h
# Outline: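 MCF7 cells ([…], 96-well plates) carrying one of 879 miRNA mimics, transfected at 10 nM final with Lipofectamine RNAiMax in two biological replicates, were stimulated after 72 h with 10 ng/ml heregulin-beta1 for 1 h or left unstimulated. Phospho-Akt(T308) and total Akt in cells fixed with 4% PFA were read by In-Cell Western on an Odyssey and corrected for column-wise fixation decay to give log2(pAkt/Akt). Heregulin-induced Akt activation is the replicate mean of stimulated minus unstimulated ratios.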
row,Sequence,HRG-induced Akt activation (log2)
1,CUUUUUGCGGUCUGGGCUUGC,2.31 ± 0.28
2,CGGCUCUGGGUCUGUGGGGA,1.13 ± 0.17
3,AAUUGCACGGUAUCCAUCUGUA,1.15 ± 0.15
4,CAAGCUCGCUUCUAUGGGUCUG,1.18 ± 0.12
5,UAAAUUUCACCUUUCUGAGAAGG,1.46 ± 0.22
6,CGUCAACACUUGCUGGUUUCCU,2.32 ± 0.12
7,AGCUUCUUUACAGUGCUGCCUUG,1.68 ± 0.2
8,UAACAGUCUCCAGUCACGGCC,1.5 ± 0.11
9,AUUCCUAGAAAUUGUUCAUA,1.18 ± 0.4
10,AGCUCGGUCUGAGGCCCCUCAGU,0.753 ± 0.54
11,ACAGUAGUCUGCACAUUGGUUA,1.692 ± 0.0034
12,UGCAACUUACCUGAGUCAUUGA,1.61 ± 0.13
13,UGCCUGGGUCUCUGGCCUGCGCGU,1.29 ± 0.18
14,UGUGACUGGUUGACCAGAGGGG,1.6 ± 0.2
15,CAUUAUUACUUUUGGUACGCG,1.58 ± 0.02
16,ACUGCAGUGAAGGCACUUGUAG,1.646 ± 0.0061
17,CUCCGUUUGCCUGUUUCGCUG,2.07 ± 0.2
18,CAUGGUUCUGUCAAGCACCGCG,1.34 ± 0.18
19,UACUCAAAAAGCUGUCAGUCA,1.02 ± 0.51
20,UUGGGGAAACGGCCGCUGAGUG,2.08 ± 0.097
21,GAAUGUUGCUCGGUGAACCCCU,1.33 ± 0.039
22,AAGUGCCUCCUUUUAGAGUGUU,0.982 ± 0.27
23,AAGUGCCGCCAUCUUUUGAGUGU,0.888 ± 0.34
24,AGUUUUGCAGGUUUGCAUCCAGC,1.36 ± 0.22

row,Sequence,HRG-induced Akt activation (log2)
1,UGAUAUGUUUGAUAUUGGGUU,1.75 ± 0.041
2,AACAAUAUCCUGGUGCUGAGUG,1.79 ± 0.41
3,CUCUAGAGGGAAGCACUUUCUG,2.15 ± 0.078
4,CUUAGCAGGUUGUAUUAUCAUU,1.81 ± 0.098
5,UUCUGGAAUUCUGUGUGAGGGA,1.78 ± 0.2
6,UAAUCCUUGCUACCUGGGUGAGA,1.79 ± 0.047
7,UGAGCGCCUCGACGACAGAGCCG,1.29 ± 0.043
8,GAUUUCAGUGGAGUGAAGUUC,1.744 ± 0.0085
9,ACAAAGUGCUUCCCUUUAGAGUGU,1.41 ± 0.53
10,GUUCUCCCAACGUAAGCCCAGC,1.62 ± 0.15
11,GCCCCUGGGCCUAUCCUAGAA,1.25 ± 0.56
12,CUUAUGCAAGAUUCCCUUCUAC,1.85 ± 0.23
13,UCUCUGGAGGGAAGCACUUUCUG,1.33 ± 0.18
14,ACCGUGCAAAGGUAGCAUA,1.89 ± 0.11
15,AACUGGCCUACAAAGUCCCAGU,2.21 ± 0.14
16,UGCUGGAUCAGUGGUUCGAGUC,2.32 ± 0.36
17,GCAGGAACUUGUGAGUCUCCU,1.8 ± 0.32
18,AAAUUAUUGUACAUCGGAUGAG,1.48 ± 0.61
19,UGAGCCCCUGUGCCGCCCCCAG,2.137 ± 0.01
20,GAUUAGGGUGCUUAGCUGUUAA,1.67 ± 0.28
21,UGAGAUGAAGCACUGUAGCUC,1.18 ± 0.22
22,UAAAGUGCUGACAGUGCAGAU,1.52 ± 0.054
23,UUUCCAUAGGUGAUGAGUCAC,1.09 ± 0.68
24,UGGUUCUAGACUUGCCAACUA,1.94 ± 0.026

row,Sequence,HRG-induced Akt activation (log2)
1,UCUUCUCUGUUUUGGCCAUGUG,1.27 ± 0.041
2,UGAGUAUUACAUGGCCAAUCUC,1.74 ± 0.27
3,CACCAGGCAUUGUGGUCUCC,2.13 ± 0.28
4,AGGAUGAGCAAAGAAAGUAGAUU,1.13 ± 0.25
5,AGCAGCAUUGUACAGGGCUAUGA,1.45 ± 0.015
6,CACUGUAGGUGAUGGUGAGAGUGGGCA,1.51 ± 0.23
7,CUGCCCUGGCCCGAGGGACCGA,1.21 ± 0.096
8,CAAGAACCUCAGUUGCUUUUGU,1.15 ± 0.34
9,AGAGUCUUGUGAUGUCUUGC,2.38 ± 0.067
10,UGGCCCUGACUGAAGACCAGCAGU,1.11 ± 0.22
11,UGGAUUUCUUUGUGAAUCACCA,1.87 ± 0.11
12,CCUCUGAAAUUCAGUUCUUCAG,1.76 ± 0.071
13,CCUCAGGGCUGUAGAACAGGGCU,1.49 ± 0.21
14,UACCCAGAGCAUGCAGUGUGAA,1.78 ± 0.12
15,UGUCUACUACUGGAGACACUGG,2.12 ± 0.15
16,UAUGUAACACGGUCCACUAACC,1.73 ± 0.081
17,CUACAAAGGGAAGCACUUUCUC,1.96 ± 0.15
18,GCGACCCAUACUUGGUUUCAG,1.44 ± 0.25
19,CCAGUCCUGUGCCUGCCGCCU,1.88 ± 0.41
20,GCGACCCACUCUUGGUUUCCA,1.8 ± 0.034
21,AGGUUACCCGAGCAACUUUGCAU,0.732 ± 0.16
22,AAGUGCUGUCAUAGCUGAGGUC,0.879 ± 0.58
23,CUGUACAGGCCACUGCCUUGC,1.88 ± 0.41
24,AAACCGUUACCAUUACUGAGUU,1.22 ± 0.2

row,Sequence,HRG-induced Akt activation (log2)
1,GAACGGCUUCAUACAGGAGUU,1.67 ± 0.12
2,CAAUCAGCAAGUAUACUGCCCU,1.93 ± 0.24
3,CUCCAGAGGGAAGUACUUUCU,2.02 ± 0.14
4,CUAUACGACCUGCUGCCUUUCU,1.47 ± 0.14
5,CAACGGAAUCCCAAAAGCAGCUG,1.51 ± 0.045
6,AGGAAUGUUCCUUCUUUGCC,1.91 ± 0.039
7,CUUUCAGUCGGAUGUUUACAGC,1.62 ± 0.098
8,AGGCAGUGUAGUUAGCUGAUUGC,2.22 ± 0.041
9,GGUUUGGUCCUAGCCUUUCUA,1.47 ± 0.2
10,UUUUGCACCUUUUGGAGUGAA,1.55 ± 0.13
11,GUGCCAGCUGCAGUGGGGGAG,0.883 ± 0.036
12,CUAUACAAUCUACUGUCUUUC,1.11 ± 0.051
13,AAAAGUAAUUGCGGUUUUUGCC,1.53 ± 0.17
14,UGGCAGGGAGGCUGGGAGGGG,1.63 ± 0.15
15,GGGAGCCAGGAAGUAUUGAUGU,1.82 ± 0.069
16,UGGGAACGGGUUCCGGCAGACGCUG,1.22 ± 0.16
17,UCCCCCAGGUGUGAUUCUGAUUU,1.14 ± 0.29
18,CUUGGUUCAGGGAGGGUCCCCA,1.58 ± 0.43
19,GGUCCAGAGGGGAGAUAGGUUC,1.67 ± 0.24
20,GAAAGCGCUUCUCUUUAGAGG,1.51 ± 0.33
21,GAAGUGUGCCGUGGUGUGUCU,2.03 ± 0.31
22,UAGCAGCACAUCAUGGUUUACA,1.59 ± 0.025
23,UGGGUUUACGUUGGGAGAACU,1.44 ± 0.096
24,AAUGGCGCCACUAGGGUUGUG,1.42 ± 0.35

row,Sequence,HRG-induced Akt activation (log2)
1,ACCUUCUUGUAUAAGCACUGUGCUAAA,1.54 ± 0.13
2,ACUCUUUCCCUGUUGCACUAC,1.677 ± 0.0095
3,AAACUACUGAAAAUCAAAGAU,1.76 ± 0.11
4,GUAGAUUCUCCUUCUAUGAGUA,1.35 ± 0.17
5,UCACCAGCCCUGUGUUCCCUAG,1.69 ± 0.061
6,GGAUAUCAUCAUAUACUGUAAG,1.6 ± 0.044
7,AAGCAUUCUUUCAUUGGUUGG,1.4 ± 0.014
8,GAUUGCUCUGCGUGCGGAAUCGAC,1.24 ± 0.29
9,UAAAUCCCAUGGUGCCUUCUCCU,2.03 ± 0.12
10,CUCAGUAGCCAGUGUAGAUCCU,1.53 ± 0.16
11,UAGCAAAAACUGCAGUUACUUU,1.86 ± 0.15
12,UUCCUAUGCAUAUACUUCUUUG,1.11 ± 0.32
13,UAAGGUGCAUCUAGUGCAGUUAG,2.1 ± 0.024
14,AAUCAUGUGCAGUGCCAAUAUG,1.51 ± 0.15
15,AGAGGAUACCCUUUGUAUGUU,1.23 ± 0.53
16,UACCCAUUGCAUAUCGGAGUUG,1.78 ± 0.071
17,UCGUACCGUGAGUAAUAAUGCG,1.27 ± 0.031
18,CAAAACUGGCAAUUACUUUUGC,1.5 ± 0.052
19,UCGUUUGCCUUUUUCUGCUU,1.46 ± 0.3
20,CGGCCCGGGCUGCUGCUGUUCCU,1.09 ± 0.4
21,UAUUGCACUCGUCCCGGCCUCC,1.33 ± 0.043
22,UGCAGGACCAAGAUGAGCCCU,1.41 ± 0.17
23,GCUAGUCCUGACUCAGCCAGU,2.19 ± 0.26
24,UAUGGCUUUUUAUUCCUAUGUGA,1.27 ± 0.27

row,Sequence,HRG-induced Akt activation (log2)
1,AAAGUAGCUGUACCAUUUGC,1.44 ± 0.56
2,AAAGCGCUUCCCUUCAGAGUG,1.53 ± 0.33
3,AUAAAGCUAGAUAACCGAAAGU,2.04 ± 0.33
4,AACACACCUAUUCAAGGAUUCA,1.11 ± 0.37
5,AGAUCAGAAGGUGAUUGUGGCU,1.56 ± 0.3
6,CAACAAAUCACAGUCUGCCAUA,1.2 ± 0.27
7,ACCAUCGACCGUUGAUUGUACC,1.35 ± 0.22
8,CUAAUAGUAUCUACCACAAUAAA,1.84 ± 0.24
9,CCUGUUGAAGUGUAAUCCCCA,1.21 ± 0.058
10,AAAAGCUGGGUUGAGAGGGCGA,1.44 ± 0.13
11,GAUGAUGCUGCUGAUGCUG,1.07 ± 0.52
12,ACUGGCUAGGGAAAAUGAUUGGAU,1.24 ± 0.61
13,AUCGUGCAUCCCUUUAGAGUGU,1.54 ± 0.1
14,CCUGCAGCGACUUGAUGGCUUCC,0.841 ± 0.6
15,CAUCUUCCAGUACAGUGUUGGA,1.73 ± 0.073
16,ACUUUAACAUGGAAGUGCUUUC,1.17 ± 0.09
17,UCGUGGCCUGGUCUCCAUUAU,1.03 ± 0.11
18,UCAGGCUCAGUCCCCUCCCGAU,1.36 ± 0.046
19,UUCAACGGGUAUUUAUUGAGCA,1.34 ± 0.24
